Entries after “also recorded” stand apart in the source; their conditions may differ. Where no end group is shown, it is not given here.
Legend:
sGCα1 = molecular target: T1, sGCα1 (Homo sapiens, UniProt Q02108); assay: Immunocytochemistry co-localization in LNCaP cells; type: cell-based; settings: 25 µM Biotin-labeled Peptide A-8R, 2 hrs, Fig. 2A
T1 sequence (Q02108 1-690): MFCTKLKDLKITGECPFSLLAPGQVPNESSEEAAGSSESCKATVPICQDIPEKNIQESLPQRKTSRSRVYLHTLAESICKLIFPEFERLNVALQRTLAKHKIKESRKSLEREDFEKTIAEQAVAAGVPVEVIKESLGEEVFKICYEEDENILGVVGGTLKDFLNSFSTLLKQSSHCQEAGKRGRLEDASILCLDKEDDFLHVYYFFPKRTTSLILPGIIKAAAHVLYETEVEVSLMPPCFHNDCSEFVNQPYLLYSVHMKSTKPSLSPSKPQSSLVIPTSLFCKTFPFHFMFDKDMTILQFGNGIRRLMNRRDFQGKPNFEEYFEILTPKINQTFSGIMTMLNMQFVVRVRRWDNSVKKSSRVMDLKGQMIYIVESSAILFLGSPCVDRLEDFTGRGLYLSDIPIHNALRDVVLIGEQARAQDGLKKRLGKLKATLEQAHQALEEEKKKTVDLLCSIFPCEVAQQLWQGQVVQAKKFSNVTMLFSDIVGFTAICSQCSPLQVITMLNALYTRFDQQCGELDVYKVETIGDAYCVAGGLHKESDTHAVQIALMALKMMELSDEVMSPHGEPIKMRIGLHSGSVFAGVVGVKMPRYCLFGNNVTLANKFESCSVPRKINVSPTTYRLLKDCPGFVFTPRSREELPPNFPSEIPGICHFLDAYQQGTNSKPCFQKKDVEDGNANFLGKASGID
Description: Immunocytochemistry was used to study the subcellular localization of sGCα1 and Biotin-labeled Peptide-8R in LNCaP cells. FITC-labeled anti-sGCα1 antibody (1∶100 dilution; Santa Cruz Biotechnology), anti-Biotin antibody (1∶200; Santa Cruz Biotechnology) were used for immunocytochemisty as described.
Figure 2 Peptide A-8R interacts with sGCα1 in prostate cancer cells. (A) LNCaP cells were treated with 25 µM Biotin-labeled Peptide A-8R for 2 hrs and subjected to immunocytochemistry using anti-sGCα1 or anti-Biotin antibody to measure subcellular co-localization of endogenous sGCα1 and Peptide A-8R. DAPI was used to stain nuclei. (B) LNCaP cytosolic extracts were incubated with Peptide A-8R-Biotin and subjected to purification using streptavidin-agarose. This pull-down experiment was repeated with competing excess amount of unlabeled Peptide C-8R or Peptide A-8R. In both cases Western blotting was used to measure the co-purification of sGCα1. (C) LNCaP cell extract was incubated with different concentrations of Peptide A-8R-FITC and endogenous sGCα1 was immunoprecipitated. Co-purified Peptide A-8R-FITC was quantified by measuring fluorescence signal emission. Nonlinear regression analysis was used to determine an affinity for Peptide A-8R binding to sGCα1. […] Cell number was measured after 0–48 hrs of incubation. […]

LNCaP cells = assay: Proliferation of LNCaP cells without or with R1881 (MTT); type: cell-based; settings: 2% serum without or with 1 nM R1881; 50 µM peptide; day 6; Fig. 3A; averages of three independent experiments; P<0.03 vs Vehicle
Description: For proliferation, cells were grown in medium containing 2% FBS extracted with dextran-coated charcoal (DCC). 48 hours later, ethanol or 1 nM R1881 was added to the cells followed by peptide treatment. The MTT assay (Sigma) was used as before to determine cell number. For apoptosis, 5000 cells were seeded in 96-well plates and treated with Vehicle (DMSO), Peptide A-8R (25 µM), Etoposide (50 µM) (Sigma) at different time points. The Caspase (3/7) activity was measured using Apo-ONE Homogeneous Caspase-3/7 assay kit (Promega). PARP cleavage was also used to measure apoptosis, and is described below.
Vehicle or different concentrations of Peptide A-8R or C-8R, as shown, was added to (A) hormone-dependent LNCaP cells grown in 2% serum without or with 1 nM R1881, (C) castration-resistant C81 or CWR-22Rv1 cells, or (E) sGCα1-deficient PC-3 or Cos cells. Cell number was measured after various days of incubation. Data points represent averages of three independent experiments plus standard deviations. Asterisks indicate statistical significance (P<0.03) of Peptide A activity, relative to Vehicle. Western blotting was used to monitor expression of endogenous sGCα1 in (B) C81 and CWR-22Rv1 cells, treated without or with 1 nM R1881, or (E) PC-3 and Cos cells, as compared to LNCaP cells. Note that β-actin was used to control for protein loading.

AKT = assay: Western blot of AKT in xenograft tumors; type: in vivo; settings: mouse xenograft tumors; Fig. S4B
Description: Western blotting was performed as described using primary antibodies against sGCα1 (Cayman Chemical), pan-Akt (Cell Signaling Technology), phospho-AKT (S473, T308) (Cell Signaling Technology), phospho-PDK1 (Cell Signaling Technology), phospho-GSK-3β (Cell Signaling Technology), PARP (Cell Signaling Technology), and β-Actin (Abcam).
2×10^6 C81 cells in 50 µL of growth medium was mixed with 50 µL Matrigel (BD Biosciences) and injected into both flanks of 4–6-week old SCID male mice. When tumor sizes reached 200 mm^3, 50 µL of Peptide A-8R (40 mg Peptide A-8R/Kg of animal) or Vehicle (DMSO) was directly injected into the tumors every other day. Injections were stopped after 5 times and tumors were measured every 3 days. Mice were euthanized after 3 weeks and tumors were excised. All procedures were approved by the University of Toledo Division of Lab Animal Recourses (DLAR). Protein extracts were prepared by boiling the tumor tissue in 3× SDS buffer, and evaluated by SDS-PAGE gel.
Supplementary file pone.0064189.s004.tif: Figure S4 Peptide A-mediated down-regulation of AKT is not involved in its cytotoxicity to prostate cancer cells. […] Cell number was measured after 0–6 days of incubation. […]

With Ac-TFCKAFPFHIIRRRRRRRR [Peptide A-8R] the “co-localization with sGCα1” value (sGCα1) was “colocalizes with sGCα1 only in the cytoplasm of LNCaP cells”, the “cytotoxic activity with or without androgen, LNCaP” value (LNCaP cells) was “same potent cytotoxic activity with or without androgen, causing all cells to perish by day 6 when treated with 50 µM peptide” and the “effect on AKT protein level in tumors” value (AKT) was “same negative effect on AKT protein levels; also recorded: significantly reduces AKT protein levels”.

Source: publication PMC3664642, “A Peptide against Soluble Guanylyl Cyclase α1: A New Approach to Treating Prostate Cancer” (PLoS ONE, 2013)
